Experimental findings from ChEMBL document CHEMBL1156350, “New multiflorane-type triterpenoid acids from Sandoricum indicum” (J Nat Prod, 2001) are described below.

Format in all cases: functional, cell-based
Test [1] relates to P388. In words: Cytotoxicity against vincristine-resistant mouse P388 cells in presence of vincristine.
In test [2] the test system is P388. In words: Cytotoxicity against adriamycin-resistant mouse P388 cells in presence of adriamycin.
For another test, the system named is P388/S. Nature of the test: Cytotoxicity against drug-sensitive mouse P388/S cells.
The next test deals with HL-60. In words: Cytotoxicity against human HL60 cells.
The test system of test [3] is P388. In words: Cytotoxicity against adriamycin-resistant mouse P388 cells.
The subject of test [4] is P388. In words: Cytotoxicity against vincristine-resistant mouse P388 cells.
In the next test the test system is Lymphocyte. Nature of the test: Immunosuppressant activity in mouse lymphocytes assessed as inhibition of lymphocyte proliferation.

The structures appear in SMILES notation. ≈ marks a conversion by molar mass, not a printed value.

The IC50 is the concentration needed to halve the response being measured. Turning to `CC1(C)C(=O)CC[C@]2(C)[C@H]3CC=C4[C@@H]5C[C@](C)(C(=O)O)CC[C@]5(C)CC[C@@]4(C)[C@]3(C)CC[C@@H]12`, the IC50 in the test on P388 [1] is 12 µg/mL; in the test with P388 [2], greater than 25 µg/mL; in the test with P388/S, greater than 25 µg/mL; in the test with HL-60, 15 µg/mL (≈ 33 µM); with P388 [3], greater than 25 µg/mL; with P388 [4], 12 µg/mL (≈ 26.4 µM). Further, the concentration for half-maximal inhibition (IC50) in the test on Lymphocyte came out at 25 µg/mL (≈ 55 µM).
Consider `C=C(C)[C@@H]1CC[C@]2(C)[C@H](CC=C3[C@@H]4C[C@@](C)(C(=O)O)CC[C@]4(C)CC[C@]32C)[C@@]1(C)CCC(=O)O` [KOETJAPIC ACID], for which the IC50 in the test with P388 [1] is greater than 25 µg/mL; with P388 [2], greater than 25 µg/mL; in the test with P388/S, greater than 25 µg/mL; in the test with P388 [3], greater than 25 µg/mL; in the test with P388 [4], greater than 25 µg/mL; in the test with Lymphocyte it was greater than 100 µg/mL.
In the case of `CC1(C)[C@@H](O)CC[C@]2(C)[C@H]3CC=C4[C@@H]5C[C@](C)(C(=O)O)CC[C@]5(C)CC[C@@]4(C)[C@]3(C)CC[C@@H]12`, the IC50 in the test with P388 [1] is greater than 25 µg/mL; with P388 [2], greater than 25 µg/mL; in the test with P388/S, greater than 25 µg/mL; with P388 [3], greater than 25 µg/mL; in the test on P388 [4] it was greater than 25 µg/mL; in the test with Lymphocyte it was 50 µg/mL (≈ 109 µM).
`CC1(C)C(=O)CC[C@]2(C)C3=C(CC[C@@H]12)[C@@]1(C)CC[C@@]2(C)CC[C@@](C)(C(=O)O)C[C@H]2[C@]1(C)[C@H](O)C3` [SANDORINIC ACID C]: the IC50 in the test on P388 [1], in the test with P388 [2], in the test with P388/S, with P388 [3] and with P388 [4] was greater than 25 µg/mL throughout.
Consider `C=C(C)[C@@H]1CC[C@]2(C)[C@H](CC=C3[C@@H]4C[C@](C)(C(=O)O)CC[C@]4(C)CC[C@]32C)[C@@]1(C)CCC(=O)O`, for which the concentration for half-maximal inhibition (IC50) was greater than 25 µg/mL in the test on P388 [1]; greater than 25 µg/mL in the test with P388 [2]; greater than 25 µg/mL in the test on P388/S; greater than 25 µg/mL in the test on P388 [3]; greater than 25 µg/mL with P388 [4]; greater than 100 µg/mL in the test on Lymphocyte.
As for `CC1(C)C(=O)CC[C@]2(C)[C@H]3C[C@@H](O)[C@@]4(C)[C@]5(O)C[C@](C)(C(=O)O)CC[C@]5(C)CC[C@]4(C)C3=CC[C@@H]12` [SANDORINIC ACID B], the half-maximal inhibitory concentration (IC50) with P388 [1] is 16 µg/mL; in the test on P388 [2], greater than 25 µg/mL; in the test with P388/S, greater than 25 µg/mL; in the test on P388 [3], 18 µg/mL (≈ 37 µM); in the test on P388 [4], 16 µg/mL (≈ 32.9 µM); with Lymphocyte it was 50 µg/mL (≈ 103 µM).
Take `CC1(C)[C@H](O)CC[C@]2(C)[C@H]3CC=C4[C@@H]5C[C@](C)(C(=O)O)CC[C@]5(C)CC[C@@]4(C)[C@]3(C)CC[C@@H]12` [KATONIC ACID]: the IC50 in the test with P388 [1] was 16 µg/mL; in the test with P388 [2], greater than 25 µg/mL; with P388/S, greater than 25 µg/mL; in the test with P388 [3], greater than 25 µg/mL; in the test with P388 [4], 25 µg/mL (≈ 54.7 µM); in the test on Lymphocyte, 25 µg/mL (≈ 54.7 µM).
Turning to `CC1(C)C(=O)CC[C@]2(C)C3=C(CC[C@@H]12)[C@@]1(C)CC[C@@]2(C)CC[C@@](C)(C(=O)O)C[C@@]2(O)[C@]1(C)[C@H](O)C3` [SANDORINIC ACID A], the IC50 in the test on P388 [1] amounted to 9 µg/mL; in the test on P388 [2], 9 µg/mL; in the test on P388/S, 16 µg/mL (≈ 32.9 µM); in the test on HL-60 it was 15 µg/mL (≈ 30.8 µM); in the test on P388 [3], 9 µg/mL (≈ 18.5 µM); with P388 [4] it was 10 µg/mL (≈ 20.5 µM). The half-inhibitory concentration (IC50) in the test with Lymphocyte was 25 µg/mL (≈ 51.4 µM).
